The text below walks through data of patent US9969775B2, “CGRP antagonist peptides” (Ferring B.V., priority 2015, dated 2018).

Numbered stars: 1 amine (or outer) side, 2 acyl side, 3 side chain; on linkers, the order of the positions; unused ones are H or OH. Bridge positions count the residues as written; N and C are the ends. Square brackets hold non-standard residues; d marks the D form. Peptide text beside a SMILES is read from it. * marks the point of attachment. Phe(3-CH2NH2) = O=C([C@H](Cc1cccc(CN[*:3])c1)N[*:1])[*:2]; Phe(3-CONH2) = NC(=O)c1cccc(C[C@H](N)C(=O)O)c1; Phe(2-CONH2) = NC(=O)c1ccccc1C[C@H](N)C(=O)O; X15 = N#CN=C(N)NCCC[C@H](N[*:1])C(=O)[*:2]; X5 = O=C([C@H](Cc1ccc(CO)cc1)N[*:1])[*:2]; Triazol3yl(1,2,4-5-NH2) = Nc1nc(*)n[nH]1; X14 = CCN(CC)CCC[C@H](N[*:1])C(=O)[*:2]; Arg(Me) = CNC(=N)NCCC[C@H](N)C(=O)O; Orn(iPr) = CC(C)NCCC[C@H](N)C(=O)O; Oxazole2carbonyl = O=C(c1ncco1)*; 3Pal = N[C@@H](Cc1cccnc1)C(=O)O; Picolinoyl = O=C(c1ccccn1)*; ΔPro = O=C(O)[C@@H]1C=CCN1; Orn = NCCC[C@H](N)C(=O)O; X1 = O=C(c1ncccc1F)*; X10 = O=C(c1nccs1)*; X6 = O=C(c1ccncn1)*

Assay [1] concerns the target T1, hCGRP receptor (CALCRL:RAMP1) (Homo sapiens, UniProt O60894+Q16602).
T1 construct: host or cells: GeneBLAzer CALCRL:RAMP1-CRE-bla Freestyle 293F
Nature of the assay: CGRP receptor antagonist activity measured by cAMP assay (HTRF). It is filed as cell-based. The conditions noted are these: agonist human α-CGRP; for Emax: % MPE: percent of the maximal possible effect, read-out: hCGRP-R Efficacy Antag (%) Ave; for IC50: GeneBLAzer CALCRL:RAMP1-CRE-bla Freestyle 293F cells, 30 minutes, read-out: hCGRP-R IC50 Ave. As to the method: Example 6: CGRP Receptor Antagonist Activity Measured by cAMP Assay
CGRP receptor agonists increase intracellular cyclic adenosine mono-phosphate (cAMP). CGRP receptor antagonists can reduce the agonist effect. Antagonist activity was assessed by measurement of cyclic adenosine mono-phosphate (cAMP) using cell line stably expressing the hCGRP receptor (GeneBLAzer® CALCRL:RAMP1-CRE-bla Freestyle™ 293F, Invitrogen). hCGRP receptor expressing cells were maintained in DMEM high-glucose with GlutaMAX™ containing 10% (v/v) FBS, 0.1 mM NEAA, 25 mM HEPES, 5 ug/ml Blasticidin, 100 ug/ml Hygromycin, and 400 ug/ml Geneticin at 37° C. under 5% CO2 in a humidified atmosphere. For cAMP measurement, cells were washed once with 5 ml 1×PBS, cell maintenance media was replaced with compound buffer ((CB): DMEM containing 0.1% BSA and 0.5 mM IBMX), and flasks were incubated for 1 hour at 37° C. under 5% CO2 in a humidified atmosphere. Cells were removed from culture flasks using non-enzymatic cell dissociation buffer and harvested in CB. The reaction was performed in 384 well white small volume plates (Greiner) at a density of 10,000 cells/well. Cells were exposed to varying concentrations of antagonist compounds for 30 minutes in the presence of a fixed concentration of agonist (human α-CGRP). cAMP levels were measured using an HTRF (homogeneous time resolved fluorescence)-based competitive cAMP immunoassay (cAMP Dynamic 2 Kit, Cisbio), according to the manufacturer's instructions. […] Reported parameters include antagonist potency IC50 (the concentration causing half-maximal inhibition of the agonist response for antagonist compounds) and efficacy (% MPE: percent of the maximal possible effect).

Assay [2] concerns the target T2, hAM2 receptor (CALCRL:RAMP3) (Homo sapiens, UniProt O60896+Q16602).
T2 construct: expressed in transfected cells; host or cells: GeneBLAzer CALCRL:RAMP3-CRE-bla Freestyle 293F
Description: AM2 receptor antagonist activity measured by cAMP assay (HTRF). The format is cell-based. The conditions noted are these: for Emax: % MPE: percent of the maximal possible effect, read-out: hAM2-R Efficacy Antag (%) Ave; for Emax / IC50: agonist human adrenomedullin; for IC50: GeneBLAzer CALCRL:RAMP3-CRE-bla Freestyle 293F cells, read-out: hAM2-R IC50 Ave; for selectivity ratio CGRP/AM2: selectivity ratio for hCGRP over hAM2, calculated from the IC50 values.

T1 sequence (Q16602 23-461): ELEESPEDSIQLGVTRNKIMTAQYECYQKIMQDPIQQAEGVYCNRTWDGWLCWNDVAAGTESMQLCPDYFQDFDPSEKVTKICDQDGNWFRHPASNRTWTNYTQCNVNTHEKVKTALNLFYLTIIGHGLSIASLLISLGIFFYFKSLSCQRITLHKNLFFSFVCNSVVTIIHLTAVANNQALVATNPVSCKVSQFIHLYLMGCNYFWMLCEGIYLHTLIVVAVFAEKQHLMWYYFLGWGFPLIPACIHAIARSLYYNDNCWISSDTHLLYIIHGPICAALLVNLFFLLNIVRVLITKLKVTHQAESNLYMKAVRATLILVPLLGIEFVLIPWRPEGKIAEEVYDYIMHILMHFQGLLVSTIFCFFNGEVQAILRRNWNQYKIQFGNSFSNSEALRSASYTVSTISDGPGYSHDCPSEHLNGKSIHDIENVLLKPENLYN
T1 sequence (O60894 27-148): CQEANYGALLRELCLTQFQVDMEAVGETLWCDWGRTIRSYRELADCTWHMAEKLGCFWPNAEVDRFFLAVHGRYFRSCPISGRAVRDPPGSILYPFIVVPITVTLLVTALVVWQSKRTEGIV
T2 sequence (Q16602 23-461): as the sequence (Q16602 23-461) above
T2 sequence (O60896 24-148): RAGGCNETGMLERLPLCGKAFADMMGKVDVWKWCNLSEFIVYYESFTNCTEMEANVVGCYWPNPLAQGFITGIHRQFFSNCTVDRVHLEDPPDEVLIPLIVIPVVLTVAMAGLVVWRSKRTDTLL

As to `CC(C)[C@@H]1NC(=O)[C@H](CC(=O)O)NC(=O)[C@H](CCCNC(=N)N)NC(=O)[C@@H](NC(=O)[C@H](Cc2cccc(CN)c2)NC(=O)[C@H](NC(=O)c2ncco2)C(C)C)CSSC[C@@H](C(=O)N[C@@H](Cc2cccnc2)C(N)=O)NC(=O)[C@H](Cc2cccc(C(N)=O)c2)NC(=O)[C@@H]2C=CCN2C(=O)CNC1=O` [Compound 23, Oxazole-2-carbonyl-D-Val-Phe(3-CH2NH2)-c(Cys-Arg-Asp-Val-Gly-Dhp-Phe(3-Cbm)-Cys)-3Pal-NH2] (Oxazole2carbonyl-[dV][Phe(3-CH2NH2)]CRDVG[ΔPro][Phe(3-CONH2)]C[3Pal]-NH2; disulfide 3-10), in assay [1], the Emax is 100% and the IC50 was 0.05 nM. Also, in assay [2], the Emax was 100%, the IC50 was 21 nM and the “selectivity ratio CGRP/AM2” value is 400.

Consider `CCN(CC)CCC[C@@H]1NC(=O)[C@@H](NC(=O)[C@H](Cc2ccc(O)cc2)NC(=O)[C@H](NC(=O)c2ccccn2)C(C)C)CSSC[C@@H](C(=O)N[C@@H](Cc2cccnc2)C(N)=O)NC(=O)[C@H](Cc2ccccc2)NC(=O)[C@@H]2CCCN2C(=O)CNC(=O)[C@H](C(C)C)NC(=O)[C@H](CC(=O)O)NC1=O` [Compound 24, Picolinoyl-D-Val-Tyr-c(Cys-Orn(Et2)-Asp-Val-Gly-Pro-Phe-Cys)-3Pal-NH2] (Picolinoyl-[dV]YC[X14]DVGPFC[3Pal]-NH2; disulfide 3-10), for which, in assay [1], the Emax is 100% and the IC50 was 0.11 nM. In addition, in assay [2], the Emax was 98%, the IC50 was 128 nM and the “selectivity ratio CGRP/AM2” value is on record as 1213.

Consider `CC(C)[C@@H]1NC(=O)[C@H](CC(=O)O)NC(=O)[C@H](CCCN)NC(=O)[C@@H](NC(=O)[C@H](Cc2ccc(O)cc2)NC(=O)[C@H](NC(=O)c2ccccn2)C(C)C)CSSC[C@@H](C(=O)N[C@@H](Cc2cccnc2)C(N)=O)NC(=O)[C@H](Cc2ccc(CO)cc2)NC(=O)[C@@H]2CCCN2C(=O)CNC1=O` [Compound 25, Picolinoyl-D-Val-Tyr-c(Cys-Orn-Asp-Val-Gly-Pro-Phe(4-CH2OH)-Cys)-3Pal-NH2] (Picolinoyl-[dV]YC[Orn]DVGP[X5]C[3Pal]-NH2; disulfide 3-10), for which, in assay [1], the Emax was 100% and the IC50 was 0.07 nM. In assay [2], the Emax is 100%, the IC50 is 78 nM and the “selectivity ratio CGRP/AM2” value was 1071.

Regarding `CC(C)[C@@H]1NC(=O)[C@H](CC(=O)O)NC(=O)[C@H](CCCNC(N)=NC#N)NC(=O)[C@@H](NC(=O)[C@H](Cc2ccc(O)cc2)NC(=O)[C@H](NC(=O)c2ccccn2)C(C)C)CSSC[C@@H](C(=O)N[C@@H](Cc2cccnc2)C(N)=O)NC(=O)[C@H](Cc2ccccc2)NC(=O)[C@@H]2CCCN2C(=O)CNC1=O` [Compound 26, Picolinoyl-D-Val-Tyr-c(Cys-Arg(CN)-Asp-Val-Gly-Pro-Phe-Cys)-3Pal-NH2] (Picolinoyl-[dV]YC[X15]DVGPFC[3Pal]-NH2; disulfide 3-10), the Emax in assay [1] and in assay [2] was 100% throughout.

In the case of `CC(C)[C@@H]1NC(=O)[C@H](CC(=O)O)NC(=O)[C@H](CCCNc2nc(N)n[nH]2)NC(=O)[C@@H](NC(=O)[C@H](Cc2ccc(O)cc2)NC(=O)[C@H](NC(=O)c2ccccn2)C(C)C)CSSC[C@@H](C(=O)N[C@@H](Cc2cccnc2)C(N)=O)NC(=O)[C@H](Cc2ccccc2)NC(=O)[C@@H]2CCCN2C(=O)CNC1=O` [Compound 27, Picolinoyl-D-Val-Tyr-c(Cys-Orn(Atz)-Asp-Val-Gly-Pro-Phe-Cys)-3Pal-NH2] (Picolinoyl-[dV]YC[Orn](Triazol3yl(1,2,4-5-NH2))DVGPFC[3Pal]-NH2; disulfide 3-10), in assay [1], the Emax was 100% and the IC50 is 0.15 nM. Further, in assay [2], the Emax is 98%, the IC50 was 119 nM and the “selectivity ratio CGRP/AM2” value is listed as 765.

As to `CNC(=N)NCCC[C@@H]1NC(=O)[C@@H](NC(=O)[C@H](Cc2ccc(O)cc2)NC(=O)[C@H](NC(=O)c2ccccn2)C(C)C)CSSC[C@@H](C(=O)N[C@@H](Cc2cccnc2)C(N)=O)NC(=O)[C@H](Cc2ccccc2)NC(=O)[C@@H]2CCCN2C(=O)CNC(=O)[C@H](C(C)C)NC(=O)[C@H](CC(=O)O)NC1=O` [Compound 28, Picolinoyl-D-Val-Tyr-c(Cys-Arg(Me)-Asp-Val-Gly-Pro-Phe-Cys)-3Pal-NH2] (Picolinoyl-[dV]YC[Arg(Me)]DVGPFC[3Pal]-NH2; disulfide 3-10), the results for the Emax in assay [1] and in assay [2] were 100% and 99%, respectively.

For the compound `CC(C)[C@@H]1NC(=O)[C@H](CC(=O)O)NC(=O)[C@H](CCCN)NC(=O)[C@@H](NC(=O)[C@H](Cc2ccc(O)cc2)NC(=O)[C@H](NC(=O)c2ncccc2F)C(C)C)CSSC[C@@H](C(=O)N[C@@H](Cc2cccnc2)C(N)=O)NC(=O)[C@H](Cc2ccc(CO)cc2)NC(=O)[C@@H]2CCCN2C(=O)CNC1=O` [Compound 29, Picolinoyl(3-F)-D-Val-Tyr-c(Cys-Orn-Asp-Val-Gly-Pro-Phe(4-CH2OH)-Cys)-3Pal-NH2] (X1-[dV]YC[Orn]DVGP[X5]C[3Pal]-NH2; disulfide 3-10), in assay [1], the Emax is 100% and the IC50 is 0.09 nM. In assay [2], the Emax is 98%, the IC50 was 148 nM and the “selectivity ratio CGRP/AM2” value is on record as 1699.

On to `CC(C)NCCC[C@@H]1NC(=O)[C@@H](NC(=O)[C@H](Cc2ccccc2C(N)=O)NC(=O)[C@H](NC(=O)c2ncco2)C(C)C)CSSC[C@@H](C(=O)N[C@@H](Cc2cccnc2)C(N)=O)NC(=O)[C@H](Cc2ccccc2)NC(=O)[C@@H]2CCCN2C(=O)CNC(=O)[C@H](C(C)C)NC(=O)[C@H](CC(=O)O)NC1=O` [Compound 30, Oxazole-2-carbonyl-D-Val-Phe(2-Cbm)-c(Cys-Orn(iPr)-Asp-Val-Gly-Pro-Phe-Cys)-3Pal-NH2] (Oxazole2carbonyl-[dV][Phe(2-CONH2)]C[Orn(iPr)]DVGPFC[3Pal]-NH2; disulfide 3-10), for which, in assay [1], the Emax is 100% and the IC50 is 0.11 nM. Besides, in assay [2], the Emax was 98%, the IC50 was 700 nM and the “selectivity ratio CGRP/AM2” value is 6628.

`CC(C)[C@@H]1NC(=O)[C@H](CC(=O)O)NC(=O)[C@H](CCCNC(=N)N)NC(=O)[C@@H](NC(=O)[C@H](Cc2ccccc2C(N)=O)NC(=O)[C@H](NC(=O)c2ccncn2)C(C)C)CSSC[C@@H](C(=O)N[C@@H](Cc2cccnc2)C(N)=O)NC(=O)[C@H](Cc2cccc(CN)c2)NC(=O)[C@@H]2C=CCN2C(=O)CNC1=O` [Compound 31, Pyrimidine-4-carbonyl-D-Val-Phe(2-Cbm)-c(Cys-Arg-Asp-Val-Gly-Dhp-Phe(3-CH2NH2)-Cys)-3Pal-NH2] (X6-[dV][Phe(2-CONH2)]CRDVG[ΔPro][Phe(3-CH2NH2)]C[3Pal]-NH2; disulfide 3-10): in assay [1], the Emax was 100% and the IC50 was 0.12 nM. Further, in assay [2], the Emax was 100%, the IC50 was 46 nM and the “selectivity ratio CGRP/AM2” value is 390.

On to `CC(C)[C@@H]1NC(=O)[C@H](CC(=O)O)NC(=O)[C@H](CCCNC(=N)N)NC(=O)[C@@H](NC(=O)[C@H](Cc2ccccc2C(N)=O)NC(=O)[C@H](NC(=O)c2ncccc2F)C(C)C)CSSC[C@@H](C(=O)N[C@@H](Cc2cccnc2)C(N)=O)NC(=O)[C@H](Cc2cccc(CN)c2)NC(=O)[C@@H]2C=CCN2C(=O)CNC1=O` [Compound 32, Picolinoyl(3-F)-D-Val-Phe(2-Cbm)-c(Cys-Arg-Asp-Val-Gly-Dhp-Phe(3-CH2NH2)-Cys)-3Pal-NH2] (X1-[dV][Phe(2-CONH2)]CRDVG[ΔPro][Phe(3-CH2NH2)]C[3Pal]-NH2; disulfide 3-10), for which, in assay [1], the Emax is 100% and the IC50 is 0.12 nM. For the same compound, in assay [2], the Emax is 99%, the IC50 was 61 nM and the “selectivity ratio CGRP/AM2” value is 498.

On to `CC(C)[C@@H]1NC(=O)[C@H](CC(=O)O)NC(=O)[C@H](CCCNC(=N)N)NC(=O)[C@@H](NC(=O)[C@H](Cc2ccc(O)cc2)NC(=O)[C@H](NC(=O)c2nccs2)C(C)C)CSSC[C@@H](C(=O)N[C@@H](Cc2cccnc2)C(N)=O)NC(=O)[C@H](Cc2ccccc2)NC(=O)[C@@H]2CCCN2C(=O)CNC1=O` [Compound 33] (X10-[dV]YCRDVGPFC[3Pal]-NH2; disulfide 3-10), for which, in assay [1], the Emax was 100% and the IC50 is 0.1 nM. Besides, in assay [2], the Emax was 100%, the IC50 is 11 nM and the “selectivity ratio CGRP/AM2” value is on record as 117.
